The target in assay [1] is T1, proMMP9(20-445;ΔFnII) (SEQ ID NO:6) (Homo sapiens, UniProt P14780, DEL216-390).
T1 construct: start methionine (N); made in house; host or cells: E. coli BL21(DE3) RIL
T1 sequence (P14780 with tags, fused parts or gaps DEL216-390): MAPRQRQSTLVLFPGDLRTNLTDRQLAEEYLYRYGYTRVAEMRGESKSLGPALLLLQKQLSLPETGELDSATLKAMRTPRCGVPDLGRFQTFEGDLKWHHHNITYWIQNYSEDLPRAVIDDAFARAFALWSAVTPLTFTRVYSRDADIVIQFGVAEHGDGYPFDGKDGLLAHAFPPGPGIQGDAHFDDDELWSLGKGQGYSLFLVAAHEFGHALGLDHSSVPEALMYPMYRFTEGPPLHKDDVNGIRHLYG
The assay can be described thus: ThermoFluor with proMMP9(20-445;ΔFnII). To be noted: read-out: proMMP9(20-445; ΔFnII) (SEQ ID NO: 6) binding. An outline of the steps:
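Thermal shift of 2.8 μM desalted proMMP9(20-445;ΔFnII) with 50 μM 1,8-ANS in 50 mM HEPES pH 7.0, NaCl, Tween-20, MgCl2, CaCl2; heated 40-90 °C at 1 °C/min, emission 500 nm. Tm from fitted curves; binding fit using DSC/ThermoFluor-derived unfolding parameters for 11-point compound dilutions.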

The target in assay [2] is T2, proMMP9(67-444;ΔFnII) (SEQ ID NO:5) (Homo sapiens, UniProt P14780, DEL216-390).
T2 construct: start methionine (N); made in house; host or cells: E. coli BL21(DE3) RIL
T2 sequence (P14780 with tags, fused parts or gaps DEL216-390): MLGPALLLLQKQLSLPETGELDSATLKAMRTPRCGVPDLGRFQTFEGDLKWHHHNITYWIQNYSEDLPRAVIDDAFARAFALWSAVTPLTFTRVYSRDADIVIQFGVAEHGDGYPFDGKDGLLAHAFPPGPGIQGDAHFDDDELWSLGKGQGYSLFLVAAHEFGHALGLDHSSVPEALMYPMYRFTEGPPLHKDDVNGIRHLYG
The assay can be described thus: ThermoFluor with proMMP9(67-444;ΔFnII). The conditions noted are these: read-out: proMMP9(67-444; ΔFnII) (SEQ ID NO: 5) binding. The method in brief:
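Thermal shift with 3.5 μM protein and 50 μM 1,8-ANS in 50 mM HEPES pH 7.0, 100 mM NaCl, 0.001% Tween-20, 2.5 mM MgCl2, 300 μM CaCl2, heated 40–90 °C at 1 °C/min. Fluorescence (500±25 nm) fit to yield Tm; binding fitted using DSC/ThermoFluor-derived thermodynamic parameters, compounds dosed as serial dilutions.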

Assay [3] deals with T3, full-length proMMP9(1-707) (SEQ ID NO:1) (Homo sapiens, UniProt P14780, R574P).
T3 construct: made in house; host or cells: HEK293 (proMMP9, secreted); E. coli (MMP3)
T3 sequence (P14780 20-707 R574P): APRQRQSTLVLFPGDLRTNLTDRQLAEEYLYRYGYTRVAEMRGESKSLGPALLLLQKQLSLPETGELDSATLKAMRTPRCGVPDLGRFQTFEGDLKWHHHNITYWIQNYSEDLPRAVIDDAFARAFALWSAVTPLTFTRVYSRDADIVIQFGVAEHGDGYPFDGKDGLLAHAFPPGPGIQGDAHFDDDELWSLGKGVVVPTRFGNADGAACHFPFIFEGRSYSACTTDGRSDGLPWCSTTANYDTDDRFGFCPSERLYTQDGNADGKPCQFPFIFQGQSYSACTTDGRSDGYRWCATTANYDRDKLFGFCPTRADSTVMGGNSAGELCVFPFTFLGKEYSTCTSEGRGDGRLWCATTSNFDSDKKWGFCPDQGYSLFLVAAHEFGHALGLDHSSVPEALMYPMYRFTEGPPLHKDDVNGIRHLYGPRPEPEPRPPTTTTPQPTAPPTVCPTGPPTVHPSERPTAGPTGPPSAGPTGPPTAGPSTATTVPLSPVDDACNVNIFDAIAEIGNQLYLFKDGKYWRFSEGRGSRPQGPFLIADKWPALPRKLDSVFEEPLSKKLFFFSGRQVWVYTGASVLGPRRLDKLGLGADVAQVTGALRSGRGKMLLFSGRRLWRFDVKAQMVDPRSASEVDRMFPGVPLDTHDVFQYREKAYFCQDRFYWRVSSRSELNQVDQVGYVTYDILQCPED
Description: proMMP9/MMP3 P126 Activation Assay. Type of assay: biochemical. The conditions noted are these: proMMP9(1-707) from HEK293 cells activated by catalytic MMP3. The protocol: proMMP9/MMP3 P126 Activation Assay
The reaction volume was 50 μL. […] Reactivity of residual MMP3 towards P-126 substrate was minimal under these conditions.

For assay [4], the target named is T4, proMMP13(1-268) (SEQ ID NO:7) (Homo sapiens, UniProt P45452).
T4 construct: 6×-histidine tag (C); made in house; host or cells: HEK293 (transient transfection, secreted)
The assay can be described thus: ProMMP13/Plasmin P126 Activation Assay. Type of assay: biochemical. To be noted: proMMP13(1-268) activated by plasmin. On the procedure:
ProMMP13/Plasmin P126 Activation Assay
On the day of assay, proMMP13(1-268) (SEQ ID NO:7) purified from HEK293 cells and plasmin were diluted to 160 nM and 320 nM, respectively, in assay buffer. The reaction volume was 50 μL. […] The plate was sealed and incubated for 40 min at 37° C. […] Plasmin was not reactive towards P-126 substrate under these conditions.

pIC50, pKd: −log10 of the molar value. Counter-ions that a name gives are not always drawn.

As for `CCN1CC=C(c2ccc(-c3csc(Nc4cc(C(N)=O)ccc4OC(C)C)n3)cc2)CC1` [Example 18, 3-((4-(4-(1-Ethyl-1,2,3,6-tetrahydropyridin-4-yl)phenyl)thiazol-2-yl)amino)-4-isopropoxybenzamide.TFA], the results for the pKd in assay [1] and in assay [2] were 7.77 and 7.29, respectively. Further, the pIC50 in assay [3] is 7.60; in assay [4], 7.49.

For `CCOc1ccncc1Nc1nc(-c2ccc(OCCN3CCN(C)CC3)cc2)cs1` [Example 43, N-(4-ethoxypyridin-3-yl)-4-(4-(2-(4-methylpiperazin-1-yl)ethoxy)phenyl)thiazol-2-amine.TFA], the figures for the pKd in assay [1] and in assay [2] were 6.26 and 7.05, respectively. The pIC50 in assay [3] is 7.15; in assay [4], 5.54.

For the compound `CC(C)Oc1ccc(C(N)=O)cc1Nc1nc(-c2ccc(OCCN3CCN(C)CC3)cc2)cs1` [Example 42, 4-isopropoxy-3-((4-(4-(2-(4-methylpiperazin-1-yl)ethoxy)phenyl)thiazol-2-yl)amino)benzamide.TFA], the pKd in assay [1] was 7.80; in assay [2] it was 7.11. Moreover, the pIC50 in assay [3] is 7.57; in assay [4] it was 6.57.

Turning to `CC(C)Oc1ccc(S(N)(=O)=O)cc1Nc1nc(-c2ccc(N3CCN(C)CC3)cc2)cs1` [Example 3, 4-Isopropoxy-3-((4-(4-(4-methylpiperazin-1-yl)phenyl)thiazol-2-yl)amino)benzenesulfonamide.HCl], the pKd in assay [1] and in assay [2] was 7.06 in each case. The results for the pIC50 in assay [3] and in assay [4] were 7.13 and 6.41, respectively.

Consider `CC(C)Oc1ccc(C(N)=O)cc1Nc1nc(-c2ccc(CN3CCN(C4CC4)CC3)cc2)cs1` [Example 50, 3-((4-(4-((4-cyclopropylpiperazin-1-yl)methyl)phenyl)thiazol-2-yl)amino)-4-isopropoxybenzamide.TFA], for which the pKd is 7.66 in assay [1] and 7.00 in assay [2]. Moreover, the pIC50 in assay [3] was 7.31; in assay [4], 6.17.

For the compound `CC(C)Oc1ccc(C(N)=O)cc1Nc1nc(-c2ccc(N3CCNCC3)cc2)cs1` [Example 7, 4-Isopropoxy-3-((4-(4-(piperazin-1-yl)phenyl)thiazol-2-yl)amino)benzamide.TFA], the pKd in assay [1] was 7.89; in assay [2] it was 7.68. In addition, the pIC50 in assay [3] was 7.55; in assay [4] it was 7.11.

Source of the values: patent US20120302569A1, “PHENYL-THIAZOLYL INHIBITORS OF PRO-MATRIX METALLOPROTEINASE ACTIVATION” (priority 2011, published 2012).
